Measurements taken from patent US20120219500A1, “DIAGNOSTIC AGENT FOR INFECTIOUS DISEASES” (FUJIFILM RI PHARMA CO., LTD., priority 2009, published 2012).
Like-named read-outs stand apart in the source and are kept apart here.

Legend:
[1] = assay type: in vivo
Bacteroides fragilis = assay: in vitro uptake of radionuclide-labeled nitroimidazole derivatives (gamma counter); assay type: cell-based; conditions: for uptake by obligate anaerobes compared with facultative anaerobes: 26 to 37 KBq radiolabeled derivative, anaerobic, 37° C., rate of uptake per 10^8 CFU (FIGS. 3-6)
[2] = system: Bacteroides fragilis (ATCC25285); assay: in vitro uptake of nitroimidazole derivative under anaerobic environment (absorbance of supernatant); assay type: cell-based; conditions: 37° C.
E.coli (ATCC25922) [3] = assay: as above; assay type: cell-based; conditions: 100 μM metronidazole, 37° C., rate of uptake per 10^8 CFU (FIG. 1)
[4] = system: attenuated Mycobacterium bovis (BCG, ATCC35734); assay type: cell-based; conditions: anaerobic, 37° C.
E.coli (ATCC25922) [5] = assay: rat subcutaneous infection model, infected skin site; assay type: in vivo; conditions: SD rat, i.v. 6.5 hours before blood collection
Protocol: (§1) An in vivo assay was performed using a rat subcutaneous infection model. As the nitroimidazole derivative, Compound 1 or Compound 2 was used. As the microorganism, two strains of Bacteroides fragilis (ATCC25285, NCTC10581), which is susceptible to metronidazole, or E.coli (ATCC25922), which is not susceptible to metronidazole, was used. A 6-week-old male SD rat was administered with 5×10^9 cfu/0.1 ml bacteria suspended in physiological saline subcutaneously into the left thigh, and then served for evaluation four days later. Approximately 0.74 MBq of Compound 1 or Compound 2 was administered via the vena jugularis externa, and three hours later, blood was collected and tissues were excised. Also, for evaluation of inflammation in the infection model, approximately 0.15 MBq of [^67Ga]gallium citrate (FUJIFILM RI Pharma Co., Ltd.), which is a radioactive diagnostic agent for inflammation, was administered via the vena jugularis externa 6.5 hours before blood collection. The viable bacteria in the infected tissue was confirmed by smearing a part of the infected skin tissue on a medium and culturing it. Radioactivity (cpm) of each of ^67Ga and ^125I was measured in blood, in the infected skin site, and in the non-infection site on the skin. Radioactivity of ^125I was measured after attenuating the radioactivity of ^67Ga. The amount accumulated in each tissue and % ID/g (the ratio of radioactivity per tissue weight relative to the radioactivity administered) were calculated.

[6] = system: Bacteroides fragilis (ATCC25285, NCTC10581); assay: as above; assay type: in vivo; conditions: SD rat, i.v. 6.5 hours before blood collection
Protocol: as §1

[7] = rat subcutaneous infection model, non-infected skin site; assay type: in vivo; conditions: SD rat, i.v. 6.5 hours before blood collection
Protocol: as §1, with “The viable bacteria in the infected tissue was confirmed by smearing a part of the infected skin tissue on a medium and culturing it.” left out

[8] = approx. 0.74 MBq i.v., three hours later

Cc1ncc([N+](=O)[O-])n1CCNC(=O)c1cccc(I)c1 [Compound 1, [^125I]N1-[2-(2-methyl-5-nitro-1H-1-imidazolyl)ethyl]-3-iodobenzamide]
amount accumulated in the inflammatory skin site/blood [1, 8]: 0.85±0.25 | uptake by obligate anaerobes compared with facultative anaerobes (Bacteroides fragilis): taken up in a greater amount by obligate anaerobes than by facultative anaerobes

Cc1ncc([N+](=O)[O-])n1CCO [Metronidazole, metronidazole]
uptake by the obligate anaerobe Bacteroides fragilis ([2]; 100 μM metronidazole, rate of uptake per 10^8 CFU (FIG. 1)): taken up in a large amount | uptake by the facultative anaerobe E.coli (E.coli (ATCC25922) [3]): taken up in little amount

fluorine-18-labeled fluoromisonidazole [[^18F]FMISO]
uptake by obligate anaerobes compared with facultative anaerobes (Bacteroides fragilis): taken up in a greater amount by obligate anaerobes than by facultative anaerobes

O=C(NCCn1ccnc1[N+](=O)[O-])c1cccc(I)c1 [Compound 2, N1-[2-(2-nitro-1H-1-imidazolyl)ethyl]-3-iodobenzamide]
uptake by BCG compared with E.coli ([4]; Compound 2 0.1 mM, rate of uptake per 10^7 CFU (FIG. 9)): clearly taken up in a greater amount by nitroimidazole derivative susceptible BCG than by non-nitroimidazole derivative susceptible E.coli | amount accumulated in the inflammatory skin site/blood [1, 8]: 0.73±0.11 | uptake by obligate anaerobes compared with facultative anaerobes (Bacteroides fragilis): taken up in a greater amount by obligate anaerobes than by facultative anaerobes

O=[N+]([O-])c1nccn1CC(O)CF (centres unmarked) [[^19F]FMISO, fluoromisonidazole]
uptake by acid-fast bacteria compared with E.coli ([4]; [^19F]FMISO 0.09 mM, E.coli data from Example 1 (FIG. 10)): taken up in a greater amount by nitroimidazole derivative susceptible Mycobacterium tuberculosis in the resting stage of division than by nitroimidazole derivative non-susceptible E.coli | uptake by obligate anaerobes compared with facultative anaerobes ([2]; 70 μM [^19F]FMISO, B.fragilis vs E.coli (FIG. 2)): taken up in a greater amount by obligate anaerobes than by facultative anaerobes

[^67Ga] Ga-DOTA-(metronidazole)2 [Compound 3]
uptake by obligate anaerobes compared with facultative anaerobes (Bacteroides fragilis): taken up in a greater amount by obligate anaerobes than by facultative anaerobes | rate of uptake versus number of viable obligate anaerobes (Bacteroides fragilis; 37° C. for 120 minutes, 0.43×10^8 to 6.75×10^8 CFU/mL viable Bacteroides fragilis (FIG. 7)): increased in a manner correlated with the number of viable obligate anaerobes

O=C([O-])CC(O)(CC(=O)[O-])C(=O)[O-].[67Ga+3] [[^67Ga]gallium citrate]
amount accumulated in the inflammatory skin site/blood ([1]; rat, in vivo, iv): 1.61±0.16 | amount accumulated in the infected skin site/blood (E.coli (ATCC25922) [5]): 1.73±0.7 | amount accumulated in the infected skin site/blood ([6]; Bacteroides fragilis (ATCC25285)): 1.75 ±0.2 | amount accumulated in the infected skin site/blood ([6]; Bacteroides fragilis (NCTC10581)): 1.89±0.4 | amount accumulated in the non-infected skin site/blood [7]: 0.41±0.06
